Data as given in EPA's CvTdb concentration-time database.

Legend:
Experiment in all cases: concentration in plasma after dosing
Rat [1] = conditions: 40 min; dosed: 1-Chloro-2-propanol; 15 mg/kg; oral; Male; F344
Rat [2] = conditions: dosed: 1-Chloro-2-propanol, 7.5 mg/kg, oral, Male, F344
Rat [3] = conditions: dosed: 1-Chloro-2-propanol, 7.5 mg/kg, oral, Male, F344; remark: listed apart in the source
Rat [4] = conditions: 0.5 h; dosed: 1-Chloro-2-propanol; 7.5 mg/kg; oral; Female; F344
Rat [5] = conditions: dosed: 1-Chloro-2-propanol, 15 mg/kg, oral, Male, F344
Rat [6] = conditions: dosed: 1-Chloro-2-propanol, 7.5 mg/kg, oral, Male, F344; remark: listed apart in the source
Rat [7] = conditions: dosed: 1-Chloro-2-propanol, 7.5 mg/kg, oral, Male, F344; remark: listed apart in the source
Rat [8] = conditions: dosed: 1-Chloro-2-propanol, 15 mg/kg, oral, Female, F344
Rat [9] = conditions: dosed: 1-Chloro-2-propanol, 7.5 mg/kg, oral, Female, F344
Rat [10] = conditions: dosed: 1-Chloro-2-propanol, 7.5 mg/kg, oral, Male, F344; remark: listed apart in the source
Rat [11] = conditions: dosed: 1-Chloro-2-propanol, 15 mg/kg, oral, Female, Harlan Sprague-Dawley
Rat [12] = conditions: dosed: 1-Chloro-2-propanol, 7.5 mg/kg, oral, Male, F344; remark: listed apart in the source
Rat [13] = conditions: 20 min; dosed: 1-Chloro-2-propanol; 7.5 mg/kg; oral; Female; F344
Rat [14] = conditions: dosed: 1-Chloro-2-propanol, 7.5 mg/kg, oral, Female, F344; remark: listed apart in the source
Rat [15] = conditions: dosed: 1-Chloro-2-propanol, 15 mg/kg, oral, Female, Harlan Sprague-Dawley; remark: listed apart in the source
Rat [16] = conditions: dosed: 1-Chloro-2-propanol, 15 mg/kg, oral, Male, F344; remark: listed apart in the source
Rat [17] = conditions: dosed: 1-Chloro-2-propanol, 15 mg/kg, oral, Female, Harlan Sprague-Dawley; remark: listed apart in the source
Rat [18] = conditions: dosed: 1-Chloro-2-propanol, 7.5 mg/kg, oral, Female, F344; remark: listed apart in the source
Rat [19] = conditions: dosed: 1-Chloro-2-propanol, 15 mg/kg, oral, Female, F344; remark: listed apart in the source
Rat [20] = conditions: dosed: 1-Chloro-2-propanol, 15 mg/kg, oral, Female, F344; remark: listed apart in the source
Rat [21] = conditions: dosed: 1-Chloro-2-propanol, 15 mg/kg, oral, Female, F344; remark: listed apart in the source
Rat [22] = conditions: dosed: 1-Chloro-2-propanol, 15 mg/kg, oral, Male, F344; remark: listed apart in the source
Rat [23] = conditions: 0.5 h; dosed: 1-Chloro-2-propanol; 7.5 mg/kg; oral; Female; F344; remark: listed apart in the source
Rat [24] = conditions: dosed: 1-Chloro-2-propanol, oral
Rat [25] = conditions: 10 min; dosed: 1-Chloro-2-propanol; 7.5 mg/kg; oral; Female; F344
Rat [26] = conditions: dosed: 1-Chloro-2-propanol, 7.5 mg/kg, oral, Female, F344; remark: listed apart in the source
Rat [27] = conditions: dosed: 1-Chloro-2-propanol, 15 mg/kg, oral, Male, F344; remark: listed apart in the source
Rat [28] = conditions: 40 min; dosed: 1-Chloro-2-propanol; 7.5 mg/kg; oral; Male; F344
Rat [29] = conditions: dosed: 1-Chloro-2-propanol, 7.5 mg/kg, oral, Male, F344; remark: listed apart in the source
Rat [30] = conditions: dosed: 1-Chloro-2-propanol, 15 mg/kg, oral, Female, Harlan Sprague-Dawley; remark: listed apart in the source

CC(O)CCl (stereo not drawn) [1-Chloro-2-propanol]
Conditions | concentration in plasma [ng/mL]
Rat [1] | 2740
Rat [4] | 730
Rat [13] | 830
Rat [23] | 740
Rat [25] | 1450
Rat [28] | 810

Conditions | concentration in plasma [ng/mL]
Rat [2], 5 min | 1600
Rat [2], 40 min | 750
Rat [3], 1 h | 393
Rat [3], 10 min | 900
Rat [5], 2 h | 203
Rat [5], 10 min | 6460
Rat [6], 1.5 h | 144
Rat [6], 20 min | 960
Rat [7], 0.5 h | 1360
Rat [7], 2 h | 56
Rat [8], 2 h | 112
Rat [8], 10 min | 4730
Rat [9], 5 min | 2360
Rat [9], 40 min | 720
Rat [10], 0.5 h | 1040
Rat [10], 2 h | 75
Rat [11], 1.5 h | 780
Rat [11], 20 min | 4590
Rat [12], 1 h | 195
Rat [12], 10 min | 1400
Rat [14], 1.5 h | 81
Rat [14], 20 min | 740
Rat [15], 1.5 h | 354
Rat [15], 20 min | 6300
Rat [16], 1 h | 940
Rat [16], 5 min | 6120
Rat [17], 0.5 h | 3970
Rat [17], 2.5 h | 79
Rat [18], 5 min | 1170
Rat [18], 40 min | 213
Rat [19], 1 h | 630
Rat [19], 5 min | 6880
Rat [20], 1 h | 897
Rat [20], 5 min | 4660
Rat [21], 2 h | 72
Rat [21], 10 min | 6200
Rat [22], 2 h | 131
Rat [22], 10 min | 6070
Rat [26], 1 h | 133
Rat [26], 10 min | 1260
Rat [27], 1 h | 1020
Rat [27], 5 min | 3020
Rat [29], 1.5 h | 108
Rat [29], 20 min | 1270
Rat [30], 0.5 h | 4680
Rat [30], 2.5 h | 71

concentration in plasma [ng/mL], Rat [24]
Conditions | 0.5 h | 1 h | 1.5 h | 2 h | 2.5 h | 3 h | 5 min | 10 min | 20 min | 40 min
7.5 mg/kg, Female, F344 | 479 | 138 | – | – | – | – | 1920 | 1890 | 1660 | 534
7.5 mg/kg, Male, F344 | 740 | 334 | 117 | 70 | – | – | 1660 | 1830 | 1030 | 638
15 mg/kg, Female, F344 | – | 677 | – | 127 | – | – | 3360 | 3860 | 3180 | –
15 mg/kg, Female, Harlan Sprague-Dawley | 3270 | – | 768 | – | 69 | 59 | – | – | 3020 | 4110
15 mg/kg, Male, F344 | – | 920 | – | 159 | – | 107 | 1700 | 5370 | – | 3300
